Test results taken from ChEMBL document CHEMBL1135507, “II. Synthesis and biological evaluation of some bioisosteres and congeners of the antitumor agent, 2-(4-[(7-chloro-2-quinoxalinyl)oxy]phenoxy)propionic acid (XK469)” (2002).
Calls of active or inactive are those of the source. The calls are words filed in the database; no cut-off is given here.

What was measured:
[1] = […] cytotoxicity against resistant mammary adenocarcinoma-17/adr(M17/adr) after the administration of 7 injections (iv) at a dose of 462 (mg/kg); assay type: functional, Mus musculus
[2] = In vitro cytotoxicity against resistant mammary adenocarcinoma-17/adr(M17/adr) after the administration of 7 injections (iv) at a dose of 462 (mg/kg) in 4 Mice; assay type: functional, Mus musculus
Mus musculus [3] = test: […] cytotoxicity against resistant mammary adenocarcinoma-17/adr(M17/adr) after the administration of 7 injections (iv) at a dose of 462 (mg/kg);Activity value is none; assay type: functional, organism-based
[4] = In vitro cytotoxicity against resistant mammary adenocarcinoma-17/adr(M17/adr) after the administration of 6 injections (iv) at a dose of 300 mg/kg in 5 Mice; assay type: functional, Mus musculus
Mus musculus [5] = test: […] cytotoxicity against advanced stage pancreatic ductal adenocarcinoma 03 after the administration of 7 injections (iv) at a dose of 336(mg/kg) in 5 Mice; assay type: functional
[6] = In vitro cytotoxicity against resistant mammary adenocarcinoma-17/adr(M17/adr) after the administration of 6 injections (iv) at a dose of 300 mg/kg; assay type: functional, Mus musculus
Mus musculus [7] = test: […] cytotoxicity against advanced stage pancreatic ductal adenocarcinoma 03 after the administration of 7 injections (iv) at a dose of 336(mg/kg); assay type: functional
[8] = In vitro cytotoxicity against resistant mammary adenocarcinoma-17/adr(M17/adr) after the administration of 7 injections (iv) at a dose of 370 (mg/kg); assay type: functional, Mus musculus
[9] = In vitro cytotoxicity against resistant mammary adenocarcinoma-17/adr(M17/adr) after the administration of 7 injections (iv) at a dose of 370 (mg/kg) in 5 Mice; assay type: functional, Mus musculus
Mus musculus [10] = test: […] cytotoxicity against advanced stage pancreatic ductal adenocarcinoma 03 after the administration of 7 injections (iv) at a dose of 560(mg/kg); assay type: functional
Mus musculus [11] = test: […] cytotoxicity against advanced stage pancreatic ductal adenocarcinoma 03 after the administration of 7 injections (iv) at a dose of 560(mg/kg) in 7 Mice; assay type: functional
[12] = In vitro cytotoxicity against resistant mammary adenocarcinoma-17/adr(M17/adr) after the administration of 7 injections (iv) at a dose of 455 (mg/kg) in 3 Mice; assay type: functional, Mus musculus
[13] = In vitro cytotoxicity against resistant mammary adenocarcinoma-17/adr(M17/adr) after the administration of 7 injections (iv) at a dose of 455 (mg/kg); assay type: functional, Mus musculus
Mus musculus [14] = test: […] cytotoxicity against resistant mammary adenocarcinoma-17/adr(M17/adr) after the administration of 7 injections (iv) at a dose of 455 (mg/kg); Activity value is none; assay type: functional, organism-based
Mus musculus [15] = test: […] cytotoxicity against advanced stage pancreatic ductal adenocarcinoma 03 after the administration of 6 injections (iv) at a dose of 480 (mg/kg); assay type: functional
Mus musculus [16] = test: […] cytotoxicity against advanced stage pancreatic ductal adenocarcinoma 03 after the administration of 6 injections (iv) at a dose of 480 (mg/kg) in 4 Mice; assay type: functional
[17] = In vitro cytotoxicity against resistant mammary adenocarcinoma-17/adr(M17/adr) after the administration of 6 injections (iv) at a dose of 352(mg/kg); assay type: functional, Mus musculus
[18] = In vitro cytotoxicity against resistant mammary adenocarcinoma-17/adr(M17/adr) after the administration of 6 injections (iv) at a dose of 352(mg/kg) in 5 Mice; assay type: functional, Mus musculus
[19] = In vitro cytotoxicity against resistant mammary adenocarcinoma-17/adr(M17/adr) after the administration of 6 injections (iv) at a dose of 450 (mg/kg); assay type: functional, Mus musculus
[20] = […] cytotoxicity against resistant mammary adenocarcinoma-17/adr(M17/adr) after the administration of 6 injections (iv) at a dose of 450 (mg/kg) in 5 Mice; assay type: functional, Mus musculus
Mus musculus [21] = test: […] cytotoxicity against advanced stage pancreatic ductal adenocarcinoma 03 after the administration of 5 injections (iv) at a dose of 450 (mg/kg) in 5 Mice; assay type: functional
Mus musculus [22] = test: […] cytotoxicity against advanced stage pancreatic ductal adenocarcinoma 03 after the administration of 5 injections (iv) at a dose of 450 (mg/kg); assay type: functional
Mus musculus [23] = test: […] cytotoxicity against advanced stage pancreatic ductal adenocarcinoma 03 after the administration of 5 injections (iv) at a dose of 450 (mg/kg) in 5 mice; assay type: functional
[24] = […] cytotoxicity against resistant mammary adenocarcinoma-17/adr(M17/adr) after the administration (iv) of 13 injections at a dose of 364(mg/kg) in 5 Mice; assay type: functional, Mus musculus
[25] = […] cytotoxicity against resistant mammary adenocarcinoma-17/adr(M17/adr) after the administration (iv) of 13 injections at a dose of 364(mg/kg); assay type: functional, Mus musculus
[26] = In vitro cytotoxicity against resistant mammary adenocarcinoma-17/adr(M17/adr) after the administration of 7 injections (iv) at a dose of 324(mg/kg) in 5 Mice; assay type: functional, Mus musculus
[27] = In vitro cytotoxicity against resistant mammary adenocarcinoma-17/adr(M17/adr) after the administration of 7 injections (iv) at a dose of 324(mg/kg); assay type: functional, Mus musculus

CC(Oc1ccc(Oc2nc3cc(Cl)ccc3o2)cc1)C(=O)O (racemic)
Activity rating [1]: <0.7
Body weight loss at nadir [1]: -2.3%
T/C [1]: >100%
Cures [2]: 0
Drug deaths [2]: 0
Log tumor cell kill (Mus musculus [3]): inactive

CC(Oc1ccc(Oc2ccc3ccc(Cl)cc3n2)cc1)C(=O)O (racemic)
Cures [4]: 0
Drug deaths [4]: 0
Cures (Mus musculus [5]): 0
Drug deaths (Mus musculus [5]): 0
Activity rating [6]: >2.8
Body weight loss at nadir [6]: -10.6%
Log tumor cell kill [6]: 3.8
T/C [6]: 0%
Activity rating (Mus musculus [7]): 2.8
Body weight loss at nadir (Mus musculus [7]): -8.9%
Log tumor cell kill (Mus musculus [7]): 2.6
T/C (Mus musculus [7]): 0%

CC(Oc1ccc(Oc2ccc3ccc(I)cc3n2)cc1)C(=O)O (racemic)
Activity rating [8]: 1.9
Body weight loss at nadir [8]: -4%
Log tumor cell kill [8]: 2.1
T/C [8]: 2%
Cures [9]: 0
Drug deaths [9]: 0

CC(Oc1ccc(Oc2cnc3ccc(Cl)cc3n2)cc1)C(=O)O (stereo not drawn)
Activity rating (Mus musculus [10]): 2.8
Body weight loss at nadir (Mus musculus [10]): 2.5%
Log tumor cell kill (Mus musculus [10]): 2
T/C (Mus musculus [10]): 24.5%
Cures (Mus musculus [11]): 0
Drug deaths (Mus musculus [11]): 0

CC(Oc1ccc(Oc2nc3ccc(Cl)cc3o2)cc1)C(=O)O (racemic) [FENOXAPROP]
Cures [12]: 0
Drug deaths [12]: 0
Activity rating [13]: <0.7
Body weight loss at nadir [13]: 0%
T/C [13]: >100%
Log tumor cell kill (Mus musculus [14]): inactive

CC(Oc1ccc(Oc2ccc3ccc(Cl)cc3n2)cc1)C(=O)O (stereo not drawn)
Activity rating (Mus musculus [10]): 2.8
Body weight loss at nadir (Mus musculus [10]): 3.7%
Log tumor cell kill (Mus musculus [10]): 2.3
T/C (Mus musculus [10]): 14.1%
Cures (Mus musculus [11]): 0
Drug deaths (Mus musculus [11]): 0

CC(Oc1ccc(Oc2ccc3ccc(Br)cc3n2)cc1)C(=O)O (stereo not drawn)
Activity rating (Mus musculus [15]): >2.8
Body weight loss at nadir (Mus musculus [15]): 5.9%
Log tumor cell kill (Mus musculus [15]): 3.1
T/C (Mus musculus [15]): 2.8%
Cures (Mus musculus [16]): 0
Drug deaths (Mus musculus [16]): 0

CC(Oc1ccc(Oc2ccc3ccc(Br)cc3n2)cc1)C(=O)O (racemic)
Activity rating [17]: >2.8
Body weight loss at nadir [17]: -5.5%
Log tumor cell kill [17]: 4.2
T/C [17]: 0%
Cures [18]: 0
Drug deaths [18]: 0

COc1ccc2ccc(Oc3ccc(OC(C)C(=O)O)cc3)nc2c1 (stereo not drawn)
Activity rating [19]: >2.8
Body weight loss at nadir [19]: -5%
Log tumor cell kill [19]: 3
T/C [19]: 0%
Cures [20]: 0
Drug deaths [20]: 0

COc1ccc2ccc(Oc3ccc(OC(C)C(=O)O)cc3)nc2c1 (racemic)
Drug deaths (Mus musculus [21]): 0
Activity rating (Mus musculus [22]): 1.2
Body weight loss at nadir (Mus musculus [22]): -2%
Log tumor cell kill (Mus musculus [22]): 0.8
T/C (Mus musculus [22]): 45%
Cures (Mus musculus [23]): 0

CC(Oc1ccc(Oc2cnc3ccc(Cl)cc3n2)cc1)C(=O)O (racemic)
Cures [24]: 0
Drug deaths [24]: 0
Activity rating [25]: >2.8
Body weight loss at nadir [25]: 0%
Log tumor cell kill [25]: 2.82
T/C [25]: 10.3%

CC(Oc1ccc(Oc2ccc3ccc(F)cc3n2)cc1)C(=O)O (racemic)
Cures [26]: 0
Drug deaths [26]: 0
Activity rating [27]: 1.9
Body weight loss at nadir [27]: -1.6%
Log tumor cell kill [27]: 1.5
T/C [27]: 14%
